We go through 2 compounds from US12605382B2, “Pharmaceutical composition for preventing, alleviating, or treating cancer containing 2,6-dichloro-4-(4-(4-hydroxycyclohexylamino)-7H- pyrrolo[2,3-d]pyrimidin-5-yl)phenol as active ingredient” (JBKLAB CO., LTD., priority 2021, dated 2026).

One test has as its system Huh-7. Nature of the test: Cell viability alone and in combination with sorafenib. It counts as cell-based, Human. The note with it: 1 μM alone. The protocol: (§1) Human liver cancer cell lines (SK Hep1 and Huh-7) were treated with control (no treatment), 0.1 μM of the compound of Example 1, 1 μM of sorafenib, and 0.1 μM of the compound of Example 1/1 μM of sorafenib, and the cell viability of SK Hep1 and Huh-7 was confirmed.

The test system of a further test is SK Hep1. The test is described as above. It counts as cell-based, Human. Conditions: 1 μM alone. The protocol: as §1
The test system of test [1] is HepG2. Nature of the test: WST-8 cell viability assay, hepatocellular carcinoma cell line. It counts as cell-based. Conditions: 24, 48 and 72 hours. Here is the method: (§2) Specifically, the WST-8 assay to check the cell viability of HepG2 and Hep3B, which are hepatocellular carcinoma cell lines shown in FIGS. 7A-7C and 8A-8C, was performed as follows. HepG2 and Hep3B were each seeded in 96-well plates at the density of 5×10^3 cells/well and cultured for 24 hours. Then, Sorafenib and OPT-0139 were diluted stepwise at a twofold concentration and then treated to the plates at different concentrations, followed by culture for 24, 48, and 72 hours. […] of WST-8 solution was added to each well of the plate, and the absorbance was measured with a microplate reader using a 450 nm optical filter to measure the formazan produced by the reducing factors in living cells.
(§3) Therefore, the number of living cells could be measured by measuring absorbance.

Test [2] deals with Hep3B. The description is as above. The note with it: 24, 48 and 72 hours. It counts as cell-based. The protocol: as §2, §3
For test [3], the system named is HepG2. Nature of the test: Clonogenic assay. It counts as cell-based. Conditions: 2.5 and 5 μM, 10 days. Here is the method: (§4) HepG2 and Hep3B were each seeded in 12-well plates at the density of 3×10^3 cells/well and cultured for 24 hours. Then, Sorafenib and the compound of Example 1 were treated thereto at 2.5 and 5 μM each and cultured for 10 days. Upon completion of the culture, the cells were washed with PBS, fixed with 37% formaldehyde, and stained with 0.01% crystal violet. After staining, the cells were washed with distilled water and the colonies of stained cells were photographed.

The test system of test [4] is Hep3B. Briefly: Clonogenic assay. It counts as cell-based. Conditions: 2.5 and 5 μM, 10 days. The protocol:
as §4

A further test concerns SKOV-3. Briefly: Cell viability alone and in combination with cisplatin. It counts as cell-based, Human. The note with it: 1 μM alone. The protocol:
(§5) Human ovarian cancer cell lines (SKOV-3 and OVCAR-3) were treated with control (no treatment), 0.1 μM of the compound of Example 1, 1 μM of cisplatin, and 0.1 μM of the compound of Example 1/1 μM of cisplatin, and the cell viability of SKOV-3 and OVCAR-3 was confirmed.

For a further test, the system named is OVCAR-3. The test is described as above. The note with it: 1 μM alone. It counts as cell-based, Human. Here is the method:
as §5

With `CNC(=O)c1cc(Oc2ccc(NC(=O)Nc3ccc(Cl)c(C(F)(F)F)c3)cc2)ccn1` [Sorafenib, reference compound], the cell viability entry in the test with Huh-7 was “suppressed”; in the test with SK Hep1, “suppressed”; in the test on HepG2 [1] it was “decreased the cell viability dose and time dependently”; in the test with Hep3B [2] it was “decreased the cell viability dose and time dependently”. Besides, the “number of colonies, treated vs not treated” value with HepG2 [3] and in the test on Hep3B [4] was “clear difference in the number of colonies” in each case.
Consider `N.N.[Cl][Pt][Cl]` [cisplatin, reference compound], for which the cell viability result in the test on SKOV-3 and with OVCAR-3 was “suppressed” in each case.
